Series [1] in a line: Single administration: body weight change in DIO mice. It counts as in vivo, Mouse, C57BL/6J-DIO. The settings on record: single s.c. injection, mean. The method, then:
The pharmacological effect of the fusion polypeptides produced and purified in Example 1 above was tested in mice (C57BL/6J, 6-week-old, male, 100 mice; Raonbio).
In the present example, DI0 mouse model (Mouse, C57BL/6J-DIO, male, 100 mice, 14-week-old (obesity feed feeding for 8 weeks)) in which obesity was induced by feeding a high-fat diet into the C57BL/6J mice for 8 weeks was used.
The administration of the test substances HT-ID1-GDF15, HT-ID2-GDF15, and HT-ID3-GDF15 and the control substance Semaglutide (Bachem) was conducted from the next day after group separation, and the administration time was performed at 9 AM every day. Subcutaneous administration was conducted for all the control substance and test substances. For the administration route of the control substance and test substances, subcutaneous administration was selected depending on the clinically scheduled administration route.
For all the control substance and test substances, the amount of the administration solution was set to 5 mL/kg and the administration liquid by individual was calculated on the basis of the recently measured body weight and it was administered by subcutaneous injection once on the start day of the test using a disposable syringe (1 mL). The test substances were administered only once. For comparison, the control group in which the control substance Semaglutide was administered was prepared, and the comparison group in which Semaglutide was administered was administered once a day, and all the administration was progressed from 9 AM.
As for the observation, measurement and test schedule for the test groups, the administration start date was set to Day 0, and 7 days from the administration start date were set to one week of administration.
The body weight of each mouse was measured on the day of the start of administration of the test substances (before administration), and thereafter, the body weight was measured every day (measured up to 9 days), and the amount of the administration solution of the test substances was determined on the basis of the most recently measured body weight.
All the experimental results obtained in the present example were expressed as mean±standard error and tested using Prism5 (version 5.01). One-way analysis of variance (ANOVA) was performed on all data, and when significance was observed, Dunnett's test was performed to find out the test groups with a significant difference from the control group (significance level: two-sided 5% and 1%, 0.1%).

The nature of series [2]: Pharmacokinetic test, subcutaneous administration to SD rats (serum ELISA, Human GDF15 Immunoassay). Particulars: 2 mg/kg subcutaneous, serum. Type of series: in vivo. The method, then:
For evaluation of pharmacokinetic characteristics when each fusion polypeptide was subcutaneously administered to rats, the fusion polypeptides HT-ID1-GDF15, HT-ID2-GDF15 and HT-ID3-GDF15 were subcutaneously administered into SD rats (Koatech, male, 7-week-old, about 250 g; n=3 each; test group) in an amount of 2 mg/kg, respectively, and about 200 μl of blood was collected through the caudal vein at a predetermined time. The blood collection time was performed before administration, and 1, 2, 4, 8, 24, 48, 72, 96, 168, 240 and 336 hours after administration. As the control group for comparison of pharmacokinetic characteristics, GDF15 (R&D Systems) was subcutaneously administered in an amount of 2 mg/kg by the same method to prepare a GDF15 administration group.
After administering into SD Rats as above, blood collected by time-point was centrifuged to obtain serum, and ELISA was performed using Human GDF15 Immunoassay (SGD150, R&D Systems), and the concentration in the serum was measured depending on the time of each polypeptide.
Background: An ELISA detects its analyte on a solid surface through an enzyme-linked reagent.

For “HT-ID3-GDF15: Fusion polypeptide: His-Tag, TEV cleavage site, three IgD hinges, GS linker, GDF15 (SEQ ID NO: 3)”, the “Body Weight (Group, % of initial)” value is given as 100 % of initial in series [1] (Day 0, 10 nmol/kg); 98 % of initial in series [1] (Day 1, 10 nmol/kg); 97 % of initial in series [1] (Day 2, 10 nmol/kg); 96 % of initial in series [1] (Day 3, 10 nmol/kg); 95 % of initial in series [1] (Day 4, 10 nmol/kg); 94 % of initial in series [1] (Day 5, 10 nmol/kg). The “Body Weight (Group, % of initial)” value is 95 % of initial in series [1] (Day 6, 10 nmol/kg); 95 % of initial in series [1] (Day 7, 10 nmol/kg); 95 % of initial in series [1] (Day 8, 10 nmol/kg); 96 % of initial in series [1] (Day 9, 10 nmol/kg). Also, in series [2], the “AUCextp (%) [(AUCinf − AUClast)/AUCinf]*100” value is listed as 0.287%. Moreover, the AUClast in series [2] amounted to 76200 ng·h/mL. Besides, the “Cmax (maximum concentration in blood)” value in series [2] turned out to be 1110 ng/mL. Further, the “Tmax (reaching time to maximum concentration in blood)” value in series [2] worked out at 24 h. Further, in series [2], the “t1/2 (loss half-life)” value was 26.2 h. In addition, the AUCinf in series [2] (extrapolated to infinity) is 76400 ng·h/mL.
